In ChEMBL document CHEMBL1154179, “Analogs of a 4-aminothieno[2,3-d]pyrimidine lead (QB13) as modulators of P-glycoprotein substrate specificity” (Bioorg Med Chem Lett, 2009):

Assays:
Type in all cases: cell-based
[1] = biological target: T1, ATP-dependent translocase ABCB1 (Homo sapiens, UniProt P08183); assay: Modulation of P-gp overexpressed in human A2780 cells assessed as daunorubicin accumulation preincubated 15 mins prior to daunorubicin addition measured after 180 mins by fluorescence assay
[2] = biological target: T1, ATP-dependent translocase ABCB1; assay: Modulation of P-gp overexpressed in human A2780 cells assessed as daunorubicin accumulation at 31.6 uM by MTT assay; conditions: a2780, 31.6 µM
[3] = biological target: T1, ATP-dependent translocase ABCB1; assay: Modulation of P-gp overexpressed in human A2780 cells assessed as vinblastin accumulation at 31.6 uM by MTT assay; conditions: a2780, 31.6 µM
[4] = biological target: T1, ATP-dependent translocase ABCB1; assay: Modulation of P-gp overexpressed in human A2780 cells assessed as colchicine accumulation at 31.6 uM by MTT assay; conditions: a2780, 31.6 µM

T1 sequence (P08183 whole entry): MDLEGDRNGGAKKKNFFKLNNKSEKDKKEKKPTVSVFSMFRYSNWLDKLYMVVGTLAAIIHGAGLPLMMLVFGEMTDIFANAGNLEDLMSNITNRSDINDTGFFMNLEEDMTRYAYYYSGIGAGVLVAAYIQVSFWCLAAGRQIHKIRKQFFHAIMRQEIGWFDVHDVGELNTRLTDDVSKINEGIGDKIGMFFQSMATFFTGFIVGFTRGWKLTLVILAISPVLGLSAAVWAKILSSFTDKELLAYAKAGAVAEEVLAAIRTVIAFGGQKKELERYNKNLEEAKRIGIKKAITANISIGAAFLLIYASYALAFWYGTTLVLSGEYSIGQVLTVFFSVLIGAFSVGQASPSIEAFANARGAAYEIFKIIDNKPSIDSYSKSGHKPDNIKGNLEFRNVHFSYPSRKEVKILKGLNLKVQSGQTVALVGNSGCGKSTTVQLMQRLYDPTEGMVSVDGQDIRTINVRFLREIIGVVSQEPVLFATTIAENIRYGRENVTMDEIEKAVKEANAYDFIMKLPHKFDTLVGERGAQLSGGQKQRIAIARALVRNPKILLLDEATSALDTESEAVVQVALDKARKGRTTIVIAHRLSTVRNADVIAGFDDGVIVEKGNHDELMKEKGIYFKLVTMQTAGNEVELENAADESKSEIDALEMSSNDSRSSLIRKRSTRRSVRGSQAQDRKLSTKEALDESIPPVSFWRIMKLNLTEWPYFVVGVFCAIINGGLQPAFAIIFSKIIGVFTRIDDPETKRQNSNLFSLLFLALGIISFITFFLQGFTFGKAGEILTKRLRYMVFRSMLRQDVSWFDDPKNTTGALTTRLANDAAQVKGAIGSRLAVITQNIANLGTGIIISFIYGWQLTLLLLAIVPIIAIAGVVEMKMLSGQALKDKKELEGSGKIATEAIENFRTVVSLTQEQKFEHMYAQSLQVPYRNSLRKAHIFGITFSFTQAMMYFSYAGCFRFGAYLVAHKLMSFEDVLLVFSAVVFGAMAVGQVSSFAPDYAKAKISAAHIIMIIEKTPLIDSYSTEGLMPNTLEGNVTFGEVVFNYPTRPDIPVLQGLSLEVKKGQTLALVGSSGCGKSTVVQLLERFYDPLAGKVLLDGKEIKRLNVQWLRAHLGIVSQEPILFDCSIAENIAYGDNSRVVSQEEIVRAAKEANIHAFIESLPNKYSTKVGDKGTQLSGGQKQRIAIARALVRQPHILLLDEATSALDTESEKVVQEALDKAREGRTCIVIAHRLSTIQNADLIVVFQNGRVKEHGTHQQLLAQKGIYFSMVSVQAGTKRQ

| SMILES | EC50 [1] | Activity [2] | Activity [3] | Activity [4] |
| --- | --- | --- | --- | --- |
| CCSc1nc(N)c2c(C)c(C)sc2n1 | 4590 nM | – | – | – |
| CCOC(=O)CSc1nc(N)c2ccccc2n1 | 3980 nM | – | – | – |
| CCSc1nc(N)c2c3c(sc2n1)CCCC3 | 460 nM | – | – | – |
| Nc1nc(SCCc2ccccc2)nc2ccccc12 | 1100 nM | – | – | – |
| Cc1sc2nc(SCCc3ccccc3)nc(N)c2c1C | 2250 nM | Active | Active | Not Active |
| Nc1nc(SCCc2ccccc2)nc2sc3c(c12)CCCC3 | 1020 nM | Active | Active | Not Active |
| Cc1sc2nc(SCC(=O)c3ccccc3)nc(N)c2c1C | 1310 nM | – | – | – |
| CCOC(=O)CSc1nc(N)c2c3c(sc2n1)CCC3 | 4150 nM | – | – | – |
| Nc1nc(SCCc2ccccc2)nc2sc3c(c12)CCC3 | 970 nM | – | – | – |
| CSc1nc(N)c2c3c(sc2n1)CCCC3 | 2650 nM | – | – | – |
| CCOC(=O)CSc1nc(N)c2cc(OC)c(OC)cc2n1 | 1210 nM | – | – | – |
| CSc1nc(N)c2c(C)c(C)sc2n1 | 1310 nM | – | – | – |
| Nc1nc(SCC(=O)c2ccccc2)nc2sc3c(c12)CCCC3 | 640 nM | – | – | – |
| CCOC(=O)CSc1nc(N)c2c3c(sc2n1)CN(Cc1ccccc1)CC3 | 640 nM | – | – | – |
| Cc1sc2nc(SC(C(=O)O)c3ccccc3)nc(N)c2c1C (centres undefined) | > 100000 nM | – | – | – |
| CCOC(=O)CSc1nc(N)c2c3c(sc2n1)COCC3 | 1550 nM | – | – | – |
| Nc1nc(SCCc2ccccc2)nc2sc3c(c12)CCOC3 | 560 nM | – | – | – |
| Nc1nc(SCCO)nc2sc3c(c12)CCCC3 | 1920 nM | – | – | – |
| CCOC(=O)CSc1nc(N)c2c(C)c(C)sc2n1 | 900 nM | Active | Active | Not Active |
| Nc1nc(SC(C(=O)O)c2ccccc2)nc2sc3c(c12)CCCC3 (centres undefined) | > 100000 nM | – | – | – |
| COc1cc2nc(SCCc3ccccc3)nc(N)c2cc1OC | 1520 nM | – | – | – |
| CCOC(=O)CSc1nc(N)c2c3c(sc2n1)CCCC3 | 2240 nM | Active | Active | Not Active |
